# ChEMBL document CHEMBL4043290, “Structure-based Design of Pyridone-Aminal eFT508 Targeting Dysregulated Translation by Selective Mitogen-activated Protein Kinase Interacting Kinases 1 and 2 (MNK1/2) Inhibition” (J Med Chem, 2018)
# Columns and labels:
# [1] = molecular target: Dual specificity tyrosine-phosphorylation-regulated kinase 3 (Homo sapiens) (UniProt O43781); experiment: Inhibition of DYRK3 (unknown origin) at 1 uM relative to control
# [2] = Metabolic stability in rat liver microsomes assessed as parent compound remaining at 1 uM after 30 mins by LC-ESI-TOF/MS method; type: ADME, microsome; conditions: read-out: Stability
# physchem = conditions: octanol/water
# [3] = Oral bioavailability in Sprague-Dawley rat at 10 mg/kg by LC-ESI-TOF/MS or LC-ESI-MS/MS method; type: ADME, organism-based; conditions: in vivo
# [4] = Oral bioavailability in cynomolgus monkey at 5 mg/kg by LC-ESI-TOF/MS or LC-ESI-MS/MS method; type: ADME, organism-based, Macaca fascicularis; conditions: in vivo
# [5] = molecular target: Leucine-rich repeat serine/threonine-protein kinase 2 (Homo sapiens) (UniProt Q5S007); experiment: Inhibition of LRRK2 (unknown origin) at 1 uM relative to control
# [6] = molecular target: T1, Serine/threonine-protein kinase 17A (Homo sapiens) (UniProt Q9UEE5); experiment: Inhibition of DRAK1 (unknown origin) at 1 uM relative to control
# T1 sequence (whole entry): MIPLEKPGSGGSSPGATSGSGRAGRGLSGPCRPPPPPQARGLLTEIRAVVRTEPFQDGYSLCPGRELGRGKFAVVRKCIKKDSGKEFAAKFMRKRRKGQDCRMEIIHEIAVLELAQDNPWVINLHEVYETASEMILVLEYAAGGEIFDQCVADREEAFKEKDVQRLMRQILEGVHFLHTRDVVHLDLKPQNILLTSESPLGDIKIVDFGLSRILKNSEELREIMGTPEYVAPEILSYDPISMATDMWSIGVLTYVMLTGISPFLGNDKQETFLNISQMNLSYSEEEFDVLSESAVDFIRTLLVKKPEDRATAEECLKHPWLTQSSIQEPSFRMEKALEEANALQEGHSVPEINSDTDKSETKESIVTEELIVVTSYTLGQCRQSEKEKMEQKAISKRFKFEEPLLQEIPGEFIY
# [7] = molecular target: TGF-beta receptor type-2 (Homo sapiens) (UniProt P37173); experiment: Inhibition of TGFBR2 (unknown origin) at 1 uM relative to control
# [8] = molecular target: T2, Serine/threonine-protein kinase BRSK1 (Homo sapiens) (UniProt Q8TDC3); experiment: Inhibition of BRSK1 (unknown origin) at 1 uM relative to control
# T2 sequence (whole entry): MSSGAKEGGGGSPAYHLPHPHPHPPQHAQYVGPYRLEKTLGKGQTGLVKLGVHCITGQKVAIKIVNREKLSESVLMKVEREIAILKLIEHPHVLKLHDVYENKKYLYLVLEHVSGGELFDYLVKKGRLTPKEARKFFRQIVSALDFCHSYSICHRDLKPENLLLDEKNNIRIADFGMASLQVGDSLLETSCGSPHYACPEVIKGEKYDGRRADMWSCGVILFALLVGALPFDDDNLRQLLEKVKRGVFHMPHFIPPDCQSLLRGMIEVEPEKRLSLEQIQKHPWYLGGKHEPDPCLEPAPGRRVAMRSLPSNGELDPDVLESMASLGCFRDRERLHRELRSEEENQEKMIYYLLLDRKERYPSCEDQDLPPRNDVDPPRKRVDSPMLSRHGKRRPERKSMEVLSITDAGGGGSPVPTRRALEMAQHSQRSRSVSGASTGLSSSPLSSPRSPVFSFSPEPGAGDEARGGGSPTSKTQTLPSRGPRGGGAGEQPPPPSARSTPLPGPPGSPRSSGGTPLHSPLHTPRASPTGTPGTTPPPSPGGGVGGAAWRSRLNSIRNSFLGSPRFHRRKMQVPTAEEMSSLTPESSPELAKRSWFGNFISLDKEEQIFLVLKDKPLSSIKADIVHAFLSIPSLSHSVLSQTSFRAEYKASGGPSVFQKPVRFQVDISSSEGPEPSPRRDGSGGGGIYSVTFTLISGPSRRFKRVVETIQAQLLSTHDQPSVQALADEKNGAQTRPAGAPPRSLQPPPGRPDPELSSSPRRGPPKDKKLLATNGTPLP
# [9] = molecular target: Vascular endothelial growth factor receptor 2 (Homo sapiens) (UniProt P35968); experiment: Inhibition of KDR (unknown origin) at 1 uM relative to control
# [10] = molecular target: Receptor-interacting serine/threonine-protein kinase 2 (Homo sapiens) (UniProt O43353); experiment: Inhibition of RIPK2 (unknown origin) at 1 uM relative to control
# [11] = molecular target: Serine/threonine-protein kinase 17B (Homo sapiens) (UniProt O94768); experiment: Inhibition of DRAK2 (unknown origin) at 1 uM relative to control
# [12] = Metabolic stability in mouse liver microsomes assessed as parent compound remaining at 1 uM after 30 mins by LC-ESI-TOF/MS method; type: ADME, microsome; conditions: read-out: Stability
# in vitro = conditions: human, Caco-2
# [13] = molecular target: Dual specificity protein kinase CLK4 (Homo sapiens, UniProt Q9HAZ1); experiment: Inhibition of CLK4 (unknown origin) at 1 uM relative to control
# [14] = Oral bioavailability in Balb/c mouse at 10 mg/kg by LC-ESI-TOF/MS or LC-ESI-MS/MS method; type: ADME, organism-based; conditions: in vivo
# [15] = molecular target: Proto-oncogene tyrosine-protein kinase receptor Ret (Homo sapiens) (UniProt P07949); experiment: Inhibition of RET (unknown origin) at 1 uM relative to control
# [16] = Oral bioavailability in Beagle dog at 5 mg/kg by LC-ESI-TOF/MS or LC-ESI-MS/MS method; type: ADME, organism-based, Canis lupus familiaris; conditions: in vivo
# [17] = Metabolic stability in human liver microsomes assessed as parent compound remaining at 1 uM after 30 mins by LC-ESI-TOF/MS method; type: ADME, microsome; conditions: read-out: Stability
# [18] = molecular target: Tyrosine-protein kinase Fgr (Homo sapiens) (UniProt P09769); experiment: Inhibition of FGR (unknown origin) at 1 uM relative to control
# [19] = molecular target: Vascular endothelial growth factor receptor 3 (Homo sapiens) (UniProt P35916); experiment: Inhibition of FLT4 (unknown origin) at 1 uM relative to control
# [20] = molecular target: MAP kinase-interacting serine/threonine-protein kinase 1 (Homo sapiens, UniProt Q9BUB5)
# [21] = Oral bioavailability in Beagle dog at 3 mg/kg by LC-ESI-TOF/MS or LC-ESI-MS/MS method; type: ADME, organism-based, Canis lupus familiaris; conditions: in vivo
# [22] = molecular target: Dual specificity tyrosine-phosphorylation-regulated kinase 2 (Homo sapiens) (UniProt Q92630); experiment: Inhibition of DYRK2 (unknown origin) at 1 uM relative to control
# [23] = Oral bioavailability in cynomolgus monkey at 3 mg/kg by LC-ESI-TOF/MS or LC-ESI-MS/MS method; type: ADME, organism-based, Macaca fascicularis; conditions: in vivo
# [24] = molecular target: Platelet-derived growth factor receptor alpha (Homo sapiens) (UniProt P16234); experiment: Inhibition of PDGFRA (unknown origin) at 1 uM relative to control
# [25] = molecular target: Ribosomal protein S6 kinase alpha-6 (Homo sapiens) (UniProt Q9UK32); experiment: Inhibition of RSK4 (unknown origin) at 1 uM relative to control
# [26] = molecular target: MAP kinase-activated protein kinase 3 (Homo sapiens) (UniProt Q16644); experiment: Inhibition of MAPKAPK3 (unknown origin) at 1 uM relative to control
# [27] = molecular target: Receptor-type tyrosine-protein kinase FLT3 (Homo sapiens) (UniProt P36888); experiment: Inhibition of FLT3 (unknown origin) at 1 uM relative to control
# Sequence of Proto-oncogene tyrosine-protein kinase receptor Ret (Homo sapiens) (P07949 whole entry): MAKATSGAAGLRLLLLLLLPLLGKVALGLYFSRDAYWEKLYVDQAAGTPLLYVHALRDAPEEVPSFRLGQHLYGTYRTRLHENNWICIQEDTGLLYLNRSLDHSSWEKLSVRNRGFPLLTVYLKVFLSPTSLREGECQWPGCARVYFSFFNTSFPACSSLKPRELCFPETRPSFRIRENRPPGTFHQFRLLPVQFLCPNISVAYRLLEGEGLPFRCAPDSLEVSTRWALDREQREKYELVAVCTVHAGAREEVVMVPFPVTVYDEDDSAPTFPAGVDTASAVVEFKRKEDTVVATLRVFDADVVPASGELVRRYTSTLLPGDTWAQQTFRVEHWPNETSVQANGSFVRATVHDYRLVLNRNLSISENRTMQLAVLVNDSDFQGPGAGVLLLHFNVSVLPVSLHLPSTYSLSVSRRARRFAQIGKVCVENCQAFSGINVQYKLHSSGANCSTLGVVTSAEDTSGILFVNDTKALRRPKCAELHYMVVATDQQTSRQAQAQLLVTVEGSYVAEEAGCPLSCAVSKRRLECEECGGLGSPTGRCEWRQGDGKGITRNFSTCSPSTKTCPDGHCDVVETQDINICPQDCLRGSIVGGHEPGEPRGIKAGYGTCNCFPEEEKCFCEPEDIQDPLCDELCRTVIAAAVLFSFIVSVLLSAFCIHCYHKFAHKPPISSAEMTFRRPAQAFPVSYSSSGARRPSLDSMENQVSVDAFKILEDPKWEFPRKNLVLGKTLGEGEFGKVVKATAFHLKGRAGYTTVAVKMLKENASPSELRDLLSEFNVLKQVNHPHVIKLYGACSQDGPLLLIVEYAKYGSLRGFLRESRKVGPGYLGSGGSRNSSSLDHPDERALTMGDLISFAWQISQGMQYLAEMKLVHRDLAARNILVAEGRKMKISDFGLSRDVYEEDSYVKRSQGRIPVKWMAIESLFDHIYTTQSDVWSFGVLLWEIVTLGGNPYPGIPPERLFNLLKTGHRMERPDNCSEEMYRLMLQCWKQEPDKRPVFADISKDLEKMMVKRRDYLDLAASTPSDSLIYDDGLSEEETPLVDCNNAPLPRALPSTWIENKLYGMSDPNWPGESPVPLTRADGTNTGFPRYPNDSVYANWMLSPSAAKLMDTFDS
# Sequence of TGF-beta receptor type-2 (Homo sapiens) (P37173 whole entry): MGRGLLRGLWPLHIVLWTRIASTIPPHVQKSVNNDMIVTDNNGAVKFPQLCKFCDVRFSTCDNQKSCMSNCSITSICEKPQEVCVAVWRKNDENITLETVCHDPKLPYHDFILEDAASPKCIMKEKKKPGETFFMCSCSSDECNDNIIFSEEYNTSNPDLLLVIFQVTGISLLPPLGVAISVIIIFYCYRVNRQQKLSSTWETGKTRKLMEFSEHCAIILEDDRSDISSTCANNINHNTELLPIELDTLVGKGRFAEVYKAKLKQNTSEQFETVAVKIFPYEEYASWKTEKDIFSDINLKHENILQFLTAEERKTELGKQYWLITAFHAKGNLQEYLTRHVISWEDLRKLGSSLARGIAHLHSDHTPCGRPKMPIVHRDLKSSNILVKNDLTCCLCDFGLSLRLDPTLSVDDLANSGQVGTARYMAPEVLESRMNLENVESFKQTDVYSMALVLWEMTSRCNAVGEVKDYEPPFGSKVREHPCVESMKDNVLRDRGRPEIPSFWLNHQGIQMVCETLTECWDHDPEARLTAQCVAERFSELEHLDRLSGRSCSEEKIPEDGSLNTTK
# Sequence of Leucine-rich repeat serine/threonine-protein kinase 2 (Homo sapiens) (Q5S007 whole entry): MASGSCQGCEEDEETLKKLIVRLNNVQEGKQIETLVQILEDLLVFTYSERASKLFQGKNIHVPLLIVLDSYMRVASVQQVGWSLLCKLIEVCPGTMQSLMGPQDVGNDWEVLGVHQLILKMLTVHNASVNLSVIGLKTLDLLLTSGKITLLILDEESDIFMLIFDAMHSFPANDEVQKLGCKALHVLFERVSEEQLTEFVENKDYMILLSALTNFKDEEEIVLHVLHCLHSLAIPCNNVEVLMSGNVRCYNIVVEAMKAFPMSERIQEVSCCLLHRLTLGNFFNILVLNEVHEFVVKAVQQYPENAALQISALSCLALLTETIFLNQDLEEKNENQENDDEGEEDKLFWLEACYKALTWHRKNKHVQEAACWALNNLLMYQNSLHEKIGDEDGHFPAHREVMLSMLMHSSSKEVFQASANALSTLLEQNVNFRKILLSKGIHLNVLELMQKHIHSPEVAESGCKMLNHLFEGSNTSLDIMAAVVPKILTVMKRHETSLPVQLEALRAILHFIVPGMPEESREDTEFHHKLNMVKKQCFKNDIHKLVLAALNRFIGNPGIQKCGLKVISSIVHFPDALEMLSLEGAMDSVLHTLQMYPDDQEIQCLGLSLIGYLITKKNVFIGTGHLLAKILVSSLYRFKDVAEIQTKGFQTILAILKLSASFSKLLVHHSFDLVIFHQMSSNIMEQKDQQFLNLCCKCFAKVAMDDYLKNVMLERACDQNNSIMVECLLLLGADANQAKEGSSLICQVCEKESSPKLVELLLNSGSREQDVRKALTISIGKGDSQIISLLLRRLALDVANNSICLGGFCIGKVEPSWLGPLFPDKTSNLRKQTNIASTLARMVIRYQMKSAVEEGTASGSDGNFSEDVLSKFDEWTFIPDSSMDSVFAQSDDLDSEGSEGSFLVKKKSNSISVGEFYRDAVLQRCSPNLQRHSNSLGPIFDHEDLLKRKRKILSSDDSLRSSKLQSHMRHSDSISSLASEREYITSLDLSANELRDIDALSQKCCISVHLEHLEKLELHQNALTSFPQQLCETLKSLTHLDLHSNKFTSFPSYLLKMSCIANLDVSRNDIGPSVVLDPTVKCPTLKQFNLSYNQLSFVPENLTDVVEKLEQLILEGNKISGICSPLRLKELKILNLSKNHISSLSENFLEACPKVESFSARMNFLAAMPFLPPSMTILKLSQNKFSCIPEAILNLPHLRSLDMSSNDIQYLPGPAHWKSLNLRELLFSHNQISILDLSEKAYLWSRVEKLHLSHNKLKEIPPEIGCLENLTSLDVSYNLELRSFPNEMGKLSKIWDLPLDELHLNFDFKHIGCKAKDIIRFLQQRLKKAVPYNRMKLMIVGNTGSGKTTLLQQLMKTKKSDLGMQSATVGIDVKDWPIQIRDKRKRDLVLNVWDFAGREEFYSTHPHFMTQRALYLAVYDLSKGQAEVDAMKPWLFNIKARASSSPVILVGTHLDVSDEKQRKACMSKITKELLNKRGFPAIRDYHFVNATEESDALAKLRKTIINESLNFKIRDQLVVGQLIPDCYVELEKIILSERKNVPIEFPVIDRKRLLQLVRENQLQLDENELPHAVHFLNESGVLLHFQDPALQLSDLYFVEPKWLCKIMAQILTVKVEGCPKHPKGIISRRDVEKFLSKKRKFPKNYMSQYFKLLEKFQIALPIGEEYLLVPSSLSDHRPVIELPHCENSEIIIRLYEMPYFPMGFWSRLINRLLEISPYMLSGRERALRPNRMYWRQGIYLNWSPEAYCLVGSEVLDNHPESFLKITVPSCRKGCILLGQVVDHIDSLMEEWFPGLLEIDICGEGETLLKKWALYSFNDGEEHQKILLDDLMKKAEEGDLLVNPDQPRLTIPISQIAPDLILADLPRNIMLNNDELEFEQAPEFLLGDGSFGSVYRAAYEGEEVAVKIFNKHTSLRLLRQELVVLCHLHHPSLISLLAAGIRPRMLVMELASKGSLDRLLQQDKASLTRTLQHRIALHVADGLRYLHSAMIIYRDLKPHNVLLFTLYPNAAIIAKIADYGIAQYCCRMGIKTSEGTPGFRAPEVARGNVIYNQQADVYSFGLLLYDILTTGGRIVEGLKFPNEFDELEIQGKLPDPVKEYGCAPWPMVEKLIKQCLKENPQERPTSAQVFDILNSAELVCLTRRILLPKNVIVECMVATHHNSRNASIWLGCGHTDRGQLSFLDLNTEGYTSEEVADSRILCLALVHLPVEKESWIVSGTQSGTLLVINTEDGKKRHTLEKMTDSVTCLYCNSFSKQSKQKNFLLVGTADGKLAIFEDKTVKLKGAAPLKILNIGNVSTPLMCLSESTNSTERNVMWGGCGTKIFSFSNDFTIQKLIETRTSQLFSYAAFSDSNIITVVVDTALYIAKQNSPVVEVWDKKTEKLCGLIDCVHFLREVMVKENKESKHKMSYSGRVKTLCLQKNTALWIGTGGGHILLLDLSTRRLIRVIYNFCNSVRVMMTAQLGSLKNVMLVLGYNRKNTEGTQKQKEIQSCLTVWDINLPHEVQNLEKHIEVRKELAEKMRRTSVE
# Sequence of Serine/threonine-protein kinase 17B (Homo sapiens) (O94768 whole entry): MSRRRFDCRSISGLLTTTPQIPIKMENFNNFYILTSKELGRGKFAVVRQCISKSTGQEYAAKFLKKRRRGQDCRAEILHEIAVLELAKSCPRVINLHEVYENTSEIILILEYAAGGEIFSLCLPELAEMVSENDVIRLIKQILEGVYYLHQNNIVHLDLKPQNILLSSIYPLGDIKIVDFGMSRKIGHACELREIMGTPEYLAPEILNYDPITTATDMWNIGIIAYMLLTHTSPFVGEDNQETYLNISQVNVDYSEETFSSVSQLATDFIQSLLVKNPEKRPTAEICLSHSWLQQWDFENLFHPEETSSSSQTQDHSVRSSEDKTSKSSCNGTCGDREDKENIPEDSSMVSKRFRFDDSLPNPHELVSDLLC
# Sequence of Dual specificity protein kinase CLK4 (Q9HAZ1 whole entry, looked up): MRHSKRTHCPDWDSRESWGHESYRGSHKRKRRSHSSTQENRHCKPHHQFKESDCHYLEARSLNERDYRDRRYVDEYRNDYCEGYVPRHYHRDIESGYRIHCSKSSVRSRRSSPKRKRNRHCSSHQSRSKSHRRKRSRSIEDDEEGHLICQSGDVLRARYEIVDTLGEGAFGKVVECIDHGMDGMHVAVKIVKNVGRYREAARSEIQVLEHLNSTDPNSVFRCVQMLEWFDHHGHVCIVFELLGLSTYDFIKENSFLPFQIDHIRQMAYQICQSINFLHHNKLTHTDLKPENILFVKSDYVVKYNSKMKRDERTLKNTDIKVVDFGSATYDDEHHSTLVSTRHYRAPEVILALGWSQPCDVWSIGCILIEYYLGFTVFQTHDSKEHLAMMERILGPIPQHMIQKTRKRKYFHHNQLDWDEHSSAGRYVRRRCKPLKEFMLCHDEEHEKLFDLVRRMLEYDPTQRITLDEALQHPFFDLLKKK
inhibition [1] [%],"remaining at 0.5 h, 1 µM [2] [%]",logP (physchem),bioavailability [3] [%],inhibition [5] [%],inhibition [6] [%],inhibition [7] [%],inhibition [8] [%],inhibition [9] [%],inhibition [11] [%],"remaining at 0.5 h, 1 µM [12] [%]","Papp A→B at 2 h, 5 µM (in vitro) [×10⁻⁶ cm/s]",inhibition [13] [%],bioavailability [14] [%],inhibition [15] [%],"remaining at 0.5 h, 1 µM [17] [%]",Structure (SMILES),also measured
56,69,3.2,28,59,96,57,55,71,82,73,4.2,75,58,55,89,Nc1cc(Nc2cc(Cl)c3n(c2=O)C2(CCCCC2)NC3=O)ncn1,bioavailability [4]: 50%; inhibition [10]: 59%; bioavailability [16]: > 100%
67,73,2.4,69,52,95,74,58,96,82,71,1.2,75,80,87,85,Nc1cc(Nc2cc(Cl)c3n(c2=O)C2(CCCC2)NC3=O)ncn1,inhibition [18]: 60%; inhibition [19]: 89%; IC50 [20]: 0.88 nM; bioavailability [21]: > 100%; inhibition [22]: 81%; bioavailability [23]: 51%; inhibition [24]: 55%; inhibition [25]: 58%; inhibition [26]: 54%; inhibition [27]: 55%
